Holding throughout (type): cell-based
Data set [1] has as its system SARS-CoV-2 target gene fragments (Spike, ORF1ab, ORF3A & E & M, N & ORF10 & 3'UTR). Particulars: for Primary Screening (KD %, 60 ng/well, 48 h, 96 well) A549 / EC50 (pg/ul, 48 h, 96 well) A549: Table C; for EC50 A549 cells: Table D.
For data set [2] the test system is unchanged. Particulars: for Primary Screening (KD %, 60 ng/well, 48 h, 96 well) 293T / EC50 (pg/ul, 48 h, 96 well) 293T: Table C; for EC50 293T cells: Table D.
Another data set relates to SARS-CoV-2. Particulars: for block of infection at the lowest concentration tested / inhibition of infection compared to the NS control: concentration curves; for block of infection at the lowest concentration tested: 3 nM; for Duplicate A % Infection / Duplicate B % Infection / Mean % infected / Mean % inhibition / Duplicate A % Inhibition / Duplicate B % Inhibition: primary screen using live virus; for Mean % infected / Mean % inhibition: average of the duplicates; for Mean % inhibition: vs non-silencing controls; for Duplicate A % Inhibition / Duplicate B % Inhibition: compared to the mean of the non-silencing controls; for inhibition of infection compared to the NS control: individual siRNAs at varying concentrations, flat response.

Where two headings read alike, the source gives them in different places. d = 2'-deoxy (DNA); r = 2'-OH (RNA)

Consider “CAAGUCAAACAAAUUUACAdTdT (sense CAAGUCAAACAAAUUUACATT; sugars from the 5' end r19 d2, backbone not given here) [Guangzhou5]”, for which the “Primary Screening (KD %, 60 ng/well, 48 h, 96 well) A549” value in data set [1] (A549) is reported as 80%. Also, the “Primary Screening (KD %, 60 ng/well, 48 h, 96 well) 293T” value in data set [2] was 75%.
Turning to CCACCAACAGAGCCTAAAA [COV18], in the data set on SARS-CoV-2, the “inhibition of the virus” value was found to be 100%, the “block of infection at the lowest concentration tested” value (“block of infection” below) is on record as “complete block of infection”, the “Duplicate A % Infection” value is 9% and the “Duplicate B % Infection” value turned out to be 7%. In addition, in the data set with SARS-CoV-2, the Mean % infected is given as 8%, the Mean % inhibition is recorded as 68%, the “Duplicate A % Inhibition” value was 59% and the “Duplicate B % Inhibition” value worked out at 76%. For the same substance, the “activity in a primary screen using live virus (ranking in words)” value (“activity in a primary screen” below) with SARS-CoV-2 is “best activity”.
Regarding CCAGAACAAACCCAAGGAA [COV13], in data set [2], the “Primary Screening (KD %, 60 ng/well, 48 h, 96 well) 293T” value came to 84%; the “EC50 (pg/ul, 48 h, 96 well) 293T” value is 3.1 pg/µL; the “EC50 293T cells” value is 3.1 ng/mL.
On to CCCACCAACAGAGCCTAAA [COV17], for which the “block of infection” value in the data set on SARS-CoV-2 was “complete block of infection”.
Take CCCTAATGTGTAAAATTAA [COV23]: the “block of infection” value with SARS-CoV-2 is “complete block of infection”.
On to CCTAATGTGTAAAATTAAT [COV24], for which the “block of infection” value in the data set on SARS-CoV-2 is on record as “complete block of infection”. Also, in data set [2], the “Primary Screening (KD %, 60 ng/well, 48 h, 96 well) 293T” value turned out to be 86%; the “EC50 (pg/ul, 48 h, 96 well) 293T” value was determined as 2.4 pg/µL; the “EC50 293T cells” value came to 2.4 ng/mL.
Turning to CCTTTGAAAAAGGTGACTA [COV5], in data set [1] (A549), the “Primary Screening (KD %, 60 ng/well, 48 h, 96 well) A549” value was determined as 84%. The “Primary Screening (KD %, 60 ng/well, 48 h, 96 well) 293T” value in data set [2] turned out to be 85%.
For CGACTACTAGCGTGCCTTT [COV6], in data set [1] (A549), the “Primary Screening (KD %, 60 ng/well, 48 h, 96 well) A549” value is given as 87% and the “EC50 (pg/ul, 48 h, 96 well) A549” value is 0.9 pg/µL. Also, in data set [1], the “EC50 A549 cells” value stood at 0.9 ng/mL. The “inhibition of infection compared to the NS control” value in the data set on SARS-CoV-2 is reported as ~50%. In addition, in data set [2], the “Primary Screening (KD %, 60 ng/well, 48 h, 96 well) 293T” value stood at 78%; the “EC50 (pg/ul, 48 h, 96 well) 293T” value is 17.9 pg/µL; the “EC50 293T cells” value is 17.9 ng/mL.
CGCTTCGATTGTGTGCGTA [COV9]: the “Primary Screening (KD %, 60 ng/well, 48 h, 96 well) A549” value in data set [1] (A549) came to 74%. In the data set with SARS-CoV-2, the “inhibition of infection compared to the NS control” value was ~50%. In data set [2], the “Primary Screening (KD %, 60 ng/well, 48 h, 96 well) 293T” value was 88%.
Turning to “CUAAUCUUGCUGCUACUAAAAUGUC (antisense strand not given here) [Guangzhou23]”, the “Primary Screening (KD %, 60 ng/well, 48 h, 96 well) A549” value in data set [1] (A549) is on record as 87%. For the same substance, the “Primary Screening (KD %, 60 ng/well, 48 h, 96 well) 293T” value in data set [2] worked out at 79%.
On to CUAAUCUUGCUGCUACUAAdTdT [Guangzhou12], for which the “Primary Screening (KD %, 60 ng/well, 48 h, 96 well) A549” value in data set [1] (A549) is on record as 85%. For the same substance, in data set [2], the “Primary Screening (KD %, 60 ng/well, 48 h, 96 well) 293T” value is on record as 70%.
For CUGCUAAUCUUGCUGCUACUAAAAU [Guangzhou21] the same measures were 91% and 81%.
Turning to CUUGCUGCUACUAAAAUGUdTdT [Guangzhou13], the “Primary Screening (KD %, 60 ng/well, 48 h, 96 well) A549” value in data set [1] (A549) is 82%. Further, the “Primary Screening (KD %, 60 ng/well, 48 h, 96 well) 293T” value in data set [2] was determined as 76%.
For GCCATTAGTGCAAAGAATA [COV4], in the data set on SARS-CoV-2, the “inhibition of the virus” value was 100%, the “block of infection” value is listed as “complete block of infection”, the “Duplicate A % Infection” value was determined as 6% and the “Duplicate B % Infection” value is given as 5%. Further, in the data set with SARS-CoV-2, the Mean % infected is on record as 6%, the Mean % inhibition turned out to be 77%, the “Duplicate A % Inhibition” value was 70% and the “Duplicate B % Inhibition” value is 84%. The “activity in a primary screen” value in the data set with SARS-CoV-2 is “best activity”.
Regarding GCCGCAAATTGCACAATTT [COV15], in the data set on SARS-CoV-2, the “block of infection” value is on record as “complete block of infection”, the “Duplicate A % Infection” value stood at 10%, the “Duplicate B % Infection” value is given as 13% and the Mean % infected was 11%. Further, in the data set with SARS-CoV-2, the Mean % inhibition is recorded as 56%, the “Duplicate A % Inhibition” value stood at 54% and the “Duplicate B % Inhibition” value is reported as 57%.
For GCUAAUCUUGCUGCUACUAAAAUGU [Guangzhou22], the “Primary Screening (KD %, 60 ng/well, 48 h, 96 well) A549” value in data set [1] (A549) amounted to 90%. For the same substance, in data set [2], the “Primary Screening (KD %, 60 ng/well, 48 h, 96 well) 293T” value is 83% and the “EC50 (pg/ul, 48 h, 96 well) 293T” value amounted to 23.2 pg/µL.
Take GGAAGAGCCCTAATGTGTA [COV21]: in the data set with SARS-CoV-2, the “block of infection” value was “complete block of infection”.
For the substance GGAAGGAAGTTCTGTTGAA [COV3], in data set [1] (A549), the “EC50 on the inhibition efficiency” value was 0.3 ng/mL; the “Primary Screening (KD %, 60 ng/well, 48 h, 96 well) A549” value stood at 89%; the “EC50 (pg/ul, 48 h, 96 well) A549” value was found to be 0.3 pg/µL. Also, in data set [1], the “EC50 A549 cells” value is 0.3 ng/mL. In the data set on SARS-CoV-2, the “inhibition of the virus” value came to 100%, the “block of infection” value is on record as “complete block of infection”, the “Duplicate A % Infection” value is 3% and the “Duplicate B % Infection” value came out at 6%. In addition, in the data set with SARS-CoV-2, the Mean % infected is reported as 5%, the Mean % inhibition worked out at 81%, the “Duplicate A % Inhibition” value was found to be 84% and the “Duplicate B % Inhibition” value is 79%. Also, the “activity in a primary screen” value with SARS-CoV-2 is on record as “best activity”. Besides, in the data set on SARS-CoV-2 (0.041 nM alone), the “inhibition, single siRNA alone” value is ~48%. Also, in data set [2], the “EC50 on the inhibition efficiency” value turned out to be 5.8 ng/mL; the “Primary Screening (KD %, 60 ng/well, 48 h, 96 well) 293T” value turned out to be 89%; the “EC50 (pg/ul, 48 h, 96 well) 293T” value is 5.8 pg/µL; the “EC50 293T cells” value turned out to be 5.8 ng/mL.
Take GGACAAUCAAAAAGAGUUGdTdT [Guangzhou16]: the “Primary Screening (KD %, 60 ng/well, 48 h, 96 well) A549” value in data set [1] (A549) was determined as 80%. In data set [2], the “Primary Screening (KD %, 60 ng/well, 48 h, 96 well) 293T” value is on record as 83% and the “EC50 (pg/ul, 48 h, 96 well) 293T” value is 20.4 pg/µL.
As for GGCCGCAAATTGCACAATT [COV14], in the data set with SARS-CoV-2, the “block of infection” value was “complete block of infection”, the “Duplicate A % Infection” value is given as 9%, the “Duplicate B % Infection” value is 8% and the Mean % infected was 8%. In the data set on SARS-CoV-2, the Mean % inhibition is given as 66%, the “Duplicate A % Inhibition” value is given as 57%, the “Duplicate B % Inhibition” value came to 75% and the “activity in a primary screen” value is listed as “best activity”.
Consider “UCUGCUAAUCUUGCUGCUACUAAAA (antisense strand not given here) [Guangzhou32]”, for which the “Primary Screening (KD %, 60 ng/well, 48 h, 96 well) A549” value in data set [1] (A549) stood at 90%. In addition, in data set [2], the “Primary Screening (KD %, 60 ng/well, 48 h, 96 well) 293T” value is recorded as 89%; the “EC50 (pg/ul, 48 h, 96 well) 293T” value is 8 pg/µL; the “EC50 293T cells” value is ~8 ng/mL.
Turning to “UGCUAAUCUUGCUGCUACUAAAAUG (antisense strand not given here) [Guangzhou25]”, the “Primary Screening (KD %, 60 ng/well, 48 h, 96 well) A549” value in data set [1] (A549) was found to be 90%. For the same substance, in data set [2], the “Primary Screening (KD %, 60 ng/well, 48 h, 96 well) 293T” value was found to be 83%.
Turning to “UUGGUGGUUUUAAUUUUUCACAAAU (antisense strand not given here) [Guangzhou31]”, the “Primary Screening (KD %, 60 ng/well, 48 h, 96 well) A549” value in data set [1] (A549) was found to be 73%. For the same substance, in data set [2], the “Primary Screening (KD %, 60 ng/well, 48 h, 96 well) 293T” value is given as 81% and the “EC50 (pg/ul, 48 h, 96 well) 293T” value came out at 44 pg/µL.
Take “UUUGGUGGUUUUAAUUUUUCACAAA (antisense strand not given here) [Guangzhou30]”: in data set [1] (A549), the “Primary Screening (KD %, 60 ng/well, 48 h, 96 well) A549” value is on record as 78%. Also, the “Primary Screening (KD %, 60 ng/well, 48 h, 96 well) 293T” value in data set [2] stood at 86%.

The values above are taken from patent publication US12006500B2 (priority 2020, dated 2024).
